Measured values: US5578575A, “Partially modified and retro-inverted tetrapeptides analogues of C-reactive protein fragments” (Italfarmaco S.P.A., priority 1992, dated 1996)

Assays:
murine splenocytes = experiment: Stimulation of in vitro IFN-.tau. production by murine splenocytes (ELISA); assay type: cell-based, BALB/C mice; settings: for IFN-.tau. production, Stimulation index / IFN-.tau. production, U/ml: 24 h; for IFN-.tau. production, Stimulation index: with respect to control; for IFN-.tau. production, U/ml: control 31 (Ex. 1, Ex. 2), 41 (Ex. 3)
Description: Stimulation of in vitro IFN-.tau.production by murine splenocytes The splenic cells were obtained from spleen of BALB/C mice as single cells suspension. The splenocytes thus obtained were resuspended in RPMI 1640 culture medium (Flow Lab., Hertz, UK) containing 5% of fetal calf serum (FCS) (HyClone, ST, Utah, USA) at a final concentrazione of 10^7 cells/ml, and incubated in 96-well plates for 24 hours at 37° C. in the presence of the tested compounds at the indicated concentration. At the end of the incubation the supernatant was collected, filtered by […] filter and freezed to -80° C. until the time of the test carried out by ELISA commercial kit (Genzyme, Boston, Mass., USA).

[1] = system: murine peritoneal macrophages; experiment: Stimulation of IL-1 production by murine peritoneal macrophages (ELISA); assay type: cell-based, BALB/C mice; settings: 96 h; for IL-1 production, Stimulation index: with respect to control; for IL-1 production, U/ml: control 15
Source text: Stimulation of IL-1 production by murine peritoneal macrophages Murine peritoneal macrophages were obtained by inoculation of a solution of hydrolized starch (BDH Chemicals, Poole, Dorset, UK) into the peritoneal cavity of BALB/C mice, three days before sacrificing the animals. The peritoneal cells were then collected by washing the peritoneal cavity with a solution of RPMI 1640 containing 10% of FCS, and resuspended in the same solution at a concetration of 10^6 cells/ml in 96-well plates. The incubation was performed for 96 hours at 37° C. in the presence of the compounds in question. At the end of the treatment the supernatants were collected and used for dosing cytokine by means of a suitable ELISA commerical kit (Genzyme, Boston, Mass., USA).

murine peritoneal cells = experiment: Stimulation of the nitric oxide by murine peritoneal cells (chemiluminescence); assay type: cell-based, BALB/C mice; settings: 96 h, with LPS 30 μg/ml; for nitric oxide, Stimulation index: with respect to control; for nitric oxide content: control 20
Description: Stimulation of the nitric oxide by murine peritoneal cells The peritoneal cells were obtained as described in the previous test, and incubated for 96 hours at 37° C. in the presence of the compounds in question and of lipopolysaccharide at a concentration of 30 μg/ml. At the end of the treatment the supernatants were collected and the nitric oxide content was determined by the chemiluminescence test described by Palmer R. M. J. et al, Nature, 327, 524, 1987.

Leishmania major = experiment: Effect on the leishmanicidal activity of murine peritoneal macrophage (3H-thymidine incorporation by living parasites); assay type: cell-based; settings: for cpm (counts per minute), 3H-thymidine incorporation by living parasites: control 18,273
Description: Effect on the leishmanicidal activity of murine peritoneal macrophage The peritoneal cells collected as described above were seeded in 96-well flat bottom plates (Nunc, Roskiled, DK) at a concentration of 10^5 […]; and incubated per 24 hours at 37° C. At the end of the treatment, the cells not adherent to the well were separated and discharged, whereas the adherent cells were washed three time with culture medium and incubated for 24 hours with the compounds in question, then the cells were infected through a 24 hours incubation with promastigotes of Leishmania major (L. major, PVL49 strain supplied by Dr. Neal R. A., London School of Hygiene and Tropical Medicine, London, UK). At the end of the infection treatment each well was added with 100 μl of a 0.01% solution od sodium dodecylsulphate in RPMI 1640, and the plates were incubated for 30 minutes at 37° C. The Schneider's culture medium (Schneider Drosophila medium, Gibco Lab., Grand Island, N.Y., USA) with 30% of FCS was added. Each well was added with 1 μCi of ^3 H-thymidine, and a 72 hours incubation was carried out at 37° C. The incorporation of radioactivity by the living parasites inside the peritoneal cells, which is correlated to the infection degree and consequently to the leishmanicidal activity of the cells, was measured by collecting the cells by means of a cell-harvester and measuring the radioactivity with liquid scintillation β-counter.

BALB/C mice = experiment: In vivo protection against septic shock (LPS-inoculated mice, survival); settings: LPS 50 mg/kg i.p., compound at time 0 or 30 minutes after LPS, checked for 8 days
Description: Evaluation of the in vivo protection against septic shock
BALB/C mice (6 mice/group) weighting between 20 and 25 g, were intraperitoneally inoculated with 50 mg/kg of LPS (lipopolysaccharide-Sigma). The groups, except for the control, were inoculated with increasing doses of one of the compounds of the invention dissolved in physiologic solution having a final volume of 0.5 ml, at time 0 (i.e. together with LPS) or 30 minutes after the LPS inoculation. The mice were checked for 8 days to determined the survival percentage. Compound of Example 1 yields a survival percentage of about 65% at doses of 6.2 ug/mouse and 0.62 ug/mouse, and its isomer B yields a survival percentage of about 80% at a dose of 6.25 ug/mouse and of 75% at a dose of 62.5 ug/mouse.

Compound: N=C(N)NCCC[C@H](NC(=O)[C@@H]1CCCN1C(=O)C(CCCCN)C(=O)NCN)C(=O)O (single isomer, unassigned) [Example 1]
- IFN-.tau. production, Stimulation index (murine splenocytes; 0.1 μg/ml): 1.1
- IFN-.tau. production, U/ml (murine splenocytes; 0.1 μg/ml): 33 U/ml
- IFN-.tau. production, change in words (murine splenocytes; 1.0 μg/ml): doubled
- IFN-.tau. production, Stimulation index (murine splenocytes; 1.0 μg/ml): 1.9
- IFN-.tau. production, U/ml (murine splenocytes; 1.0 μg/ml): 60 U/ml
- IFN-.tau. production, Stimulation index (murine splenocytes; 10.0 μg/ml): 1.6
- IFN-.tau. production, U/ml (murine splenocytes; 10.0 μg/ml): 49 U/ml
- IL-1 production, Stimulation index ([1]; 0.01 μg/ml): 0.4
- IL-1 production, U/ml ([1]; 0.01 μg/ml): 6 U/ml
- IL-1 production, Stimulation index ([1]; 0.1 μg/ml): 0.1
- IL-1 production, U/ml ([1]; 0.1 μg/ml): 2 U/ml
- IL-1 production, Stimulation index ([1]; 1.0 μg/ml): 0.1
- IL-1 production, U/ml ([1]; 1.0 μg/ml): 2 U/ml
- IL-1 production, Stimulation index ([1]; 10.0 μg/ml): 0,1
- IL-1 production, U/ml ([1]; 10.0 μg/ml): 2 U/ml
- nitric oxide, Stimulation index (murine peritoneal cells; 0.01 μg/ml): 2.2
- nitric oxide content (murine peritoneal cells; 0.01 μg/ml): 43 nmol/mL
- nitric oxide, Stimulation index (murine peritoneal cells; 0.1 μg/ml): 3.0
- nitric oxide content (murine peritoneal cells; 0.1 μg/ml): 59 nmol/mL
- nitric oxide, Stimulation index (murine peritoneal cells; 1.0 μg/ml): 3.9
- nitric oxide content (murine peritoneal cells; 1.0 μg/ml): 77 nmol/mL
- nitric oxide, Stimulation index (murine peritoneal cells; 10.0 μg/ml): 2.9
- nitric oxide content (murine peritoneal cells; 10.0 μg/ml): 57 nmol/mL
- % reduction of infection (Leishmania major; 0.1 μg/ml (minimum dose used)): over 70%
- % reduction of infection (Leishmania major; 0.1 μg/ml (minimum dose used), listed as Es. 1): 72%
- cpm (counts per minute), 3H-thymidine incorporation by living parasites (Leishmania major; 0.1 μg/ml): 5,096 cpm
- % reduction of infection (Leishmania major; 1.0 μg/ml): 79%
- cpm (counts per minute), 3H-thymidine incorporation by living parasites (Leishmania major; 1.0 μg/ml): 3,783 cpm
- % reduction of infection (Leishmania major; 10.0 μg/ml): 77%
- cpm (counts per minute), 3H-thymidine incorporation by living parasites (Leishmania major; 10.0 μg/ml): 4,292 cpm
- survival percentage (BALB/C mice; 0.62 ug/mouse): about 65%
- survival percentage (BALB/C mice; 6.2 ug/mouse): about 65%

Compound: N=C(N)NCCC[C@H](NC(=O)[C@@H]1CCCN1C(=O)C(CCCCN)C(=O)NCN)C(=O)O (single isomer, unassigned) [ITF 1358]
- survival percentage (BALB/C mice; 6.25 ug/mouse): about 80%
- survival percentage (BALB/C mice; 62.5 ug/mouse): 75%
